Laboratory results: paper PMC7725003, “Systematically Studying the Optimal Amino Acid Distribution Patterns of the Amphiphilic Structure by Using the Ultrashort Amphiphiles” (Frontiers in Microbiology, 2020)
Like-named read-outs stand apart in the source and are kept apart here. Where no end group is shown, it is not given here.

What was measured:
Gram-negative bacteria = settings: for TI, Gram-negative bacteria: therapeutic index TI = MHC/GM MIC
How it was run: (§1)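 Broth microdilution adapted from NCCLS: mid-log bacteria diluted in MHB to 0.5–1 × 10^6 CFU mL^–1, mixed with peptides serially diluted in 0.2% BSA. After 24 h at 37°C, MIC taken as the lowest concentration inhibiting 95% of growth by absorbance at 492 nm. Assays repeated more than 3 times.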

Gram-positive bacteria = settings: for TI, Gram-positive bacteria: therapeutic index TI = MHC/GM MIC
How it was run: as §1

E. faecalis 29212 = type: cell-based, Enterococcus faecalis; settings: 29212, 24 h
How it was run: (§2)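 Absorbance at 492 nm after 24 h at 37°C defined the MIC as the lowest peptide level inhibiting 95% of growth. Inoculum was 0.5–1 × 10^6 CFU mL^–1 mid-log cells in MHB; peptides were diluted in 0.2% BSA.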

E. coli UB1005 = type: cell-based, Escherichia coli; settings: UB1005, 24 h
How it was run: as §2

E. coli 25922 = type: cell-based, Escherichia coli; settings: 25922, 24 h
How it was run: as §2

E. coli O78 = type: cell-based, Escherichia coli; settings: O78, 24 h
How it was run: as §2

[1] = LPS binding assay (BODIPY-TR-cadaverine displacement); set-up: species or system Escherichia coli; settings: 1 h 37°C
Experimental: A BODIPY-TR-cadaverine (BC Sigma, United States) displacement assay was used to determine the abilities of the peptides to bind LPS ([Ma et al., 2015]); in this assay, a probe bound to cell-free LPS was self-quenched but fluoresced upon release into solution. The LPS from E. coli O111:B4 (50 μg/mL) was incubated with a BODIPY-TR-cadaverine (5 μg/mL) in Tris buffer (50 mM, pH 7.4) for 4 h. Subsequently, equal volumes of the LPS-probe solution and the peptides (1–64 μM) were incubated in a sterile 96-well black plate for 1 h at 37°C, and the fluorescence was measured on a spectrofluorophotometer (the Infinite 200 pro, Tecan, China) at excitation and emission wavelengths of 580 nm and 620 nm, respectively. Each test was performed independently in triplicate. The values were converted to %ΔF (AU) using the following equation:
where Fobs is the observed fluorescence at a given peptide concentration, F0 is the initial fluorescence of BC with LPS in the absence of peptides, and F100 is the BC fluorescence with LPS cells upon the addition of 10 μg mL^–1 polymyxin B, a prototype LPS binder serving as the positive control.

S. aureus 29213 = assay: Salt sensitivity assay (MIC); type: cell-based, Staphylococcus aureus; settings: for MIC, FeCl3: 4 μM FeCl3; for MIC, NH4Cl: 6 μM NH4Cl; for MIC, ZnCl2: 8 μM ZnCl2; for MIC, MgCl2: 1 mM MgCl2; for MIC, CaCl2: 2 mM CaCl2; for MIC, KCl: 4.5 mM KCl; for MIC, NaCl: 150 mM NaCl; for MIC, Control: no added salt, three independent assays
How it was run: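 MICs determined by broth microdilution in MHB with 0.5–1 × 10^6 CFU/mL, peptides serially diluted in 0.2% BSA, 24 h at 37°C. Medium supplemented with physiological salts (150 mM NaCl, 4.5 mM KCl, 6 μM NH4Cl, 8 μM ZnCl2, 1 mM MgCl2, 2mM CaCl2, 4 μM FeCl3). MIC = lowest concentration inhibiting 95% growth (A492).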

S. epidermidis 12228 = type: cell-based, Staphylococcus epidermidis; settings: 12228, 24 h
How it was run: as §2

MRSA 43300 = type: cell-based, methicillin-resistant S. aureus
How it was run: as §2

E. coli ATCC 25922 = assay: Outer membrane permeabilization (NPN uptake); type: cell-based, Escherichia coli; settings: at 16 μM peptide
Experimental: Mid-log phase E. coli ATCC 25922 cells (OD600 = 0.2) were incubated with NPN (10 μM) in 5 mM HEPES buffer (pH 7.4, containing 5 mM glucose) for 30 min. The background fluorescence was recorded for subtraction (excitation λ = 350 nm, emission λ = 420 nm) with an F-4500 fluorescence spectrophotometer (Hitachi, Japan). Subsequently, 100 μL of cell suspension was mixed with equal volumes of the peptide solution at concentrations that ranged from 1 to 64 μM in a sterile 96-well black plate. The fluorescence was recorded over time until no further fluorescence increase was detectable. Each test was performed independently in triplicate, and the results were converted to the percentage of NPN uptake using the equation:
where Fobs is the observed fluorescence at a given peptide concentration, F0 is the initial fluorescence of NPN with microbial cells in the absence of peptide, and F100 is the fluorescence of NPN with microbial cells upon the addition of 10 μg/mL polymyxin B (Sigma) (for bacteria) as a positive control.

[2] = geometric mean of MICs (Table 3)

| Substance | TI, Gram-negative bacteria (Gram-negative bacteria) | TI, Gram-positive bacteria (Gram-positive bacteria) | MBC (E. faecalis 29212) | MIC (E. faecalis 29212) | MBC (E. coli UB1005) | MIC (E. coli UB1005) | MBC (E. coli 25922) | MIC (E. coli 25922) | MBC (E. coli O78) | MIC (E. coli O78) | MIC, FeCl3 (S. aureus 29213) | MIC, NH4Cl (S. aureus 29213) | MIC, ZnCl2 (S. aureus 29213) | MIC, MgCl2 (S. aureus 29213) | MIC, CaCl2 (S. aureus 29213) | MIC, KCl (S. aureus 29213) | MIC, NaCl (S. aureus 29213) | MIC, Control (S. aureus 29213) | MBC (S. epidermidis 12228) | MIC (S. epidermidis 12228) | also measured |
| --- | --- | --- | --- | --- | --- | --- | --- | --- | --- | --- | --- | --- | --- | --- | --- | --- | --- | --- | --- | --- | --- |
| RLRLRLRLL-NH2 [L5] | 80.76 | 43.10 | 32 µM | 16 µM | 8 µM | 4 µM | 4 µM | 2 µM | 4 µM | 2 µM | 8 µM | 8 µM | 8 µM | 8 µM | 16 µM | 8 µM | 64 µM | 8 µM | 16 µM | 8 µM | GM MIC (Gram-negative bacteria; geometric mean of MICs, 9 Gram-negative strains (Table 2)): 3.17 µM; GM MIC (Gram-positive bacteria; geometric mean of MICs, 7 Gram-positive strains (Table 2)): 5.94 µM; LPS binding efficiency ([1]; at 16 μM peptide): ~80%; MIC (MRSA 43300; MHB, 24 h 37°C, 95% growth inhibition): 8 µM; MBC (MRSA 43300; value in brackets, >99.9% of cells killed): 16 µM; outer membrane permeabilization (NPN uptake) (E. coli ATCC 25922): approximately 50% |
| RWRWRWRWW-NH2 [W5] | 94.12 | 128.00 | 8 µM | 4 µM | 4 µM | 2 µM | 4 µM | 2 µM | 8 µM | 4 µM | 1 µM | 2 µM | 2 µM | 4 µM | 2 µM | 4 µM | 2 µM | 2 µM | 4 µM | 2 µM | GM, Gram-negative bacteria (Gram-negative bacteria; [2]): 2.72 µM; GM, Gram-positive bacteria (Gram-positive bacteria; [2]): 2.00 µM; LPS binding efficiency ([1]; at 32 μM peptide): ~80%; MBC (MRSA 43300; 43300, 24 h): 4 µM; MIC (MRSA 43300; 43300, 24 h): 2 µM; outer membrane permeabilization (NPN uptake) (E. coli ATCC 25922): approximately 100% |
